By IC50 is commonly meant the concentration that gives 50% inhibition. Lower therefore signals higher potency.

Molecules are shown by their SMILES. Some results are limits rather than exact numbers.

One assay addresses T1, PERK (Homo sapiens, UniProt Q9NZJ5).
T1 construct: purchased Carna 05-155
Put plainly: ISR kinase cell-free biochemical assay (Carna), PERK. Particulars: ATP 8 µM. As to the method: (§1) In brief, 26 was dissolved in DMSO and serially diluted 3-fold to generate concentrations ranging from 10 µM to 0.2 nM in a 384-well plate using a TECAN EVO200 automated liquid handler. 10 nL stock solution was transferred into each well of a 384well assay plate by an Echo550 and an equivalent volume of DMSO was added to the control wells. To each assay well, recombinant protein was suspended in 20 µL reaction buffer (listed below) and incubated at 25 °C for 1.5 h while shaking at 1250 rpm. Following incubation, 10 µL of a FRET dilution buffer including 20 mM EDTA and 4 nM Tb-anti-peIF2a [pSer51] (Invitrogen, Cat# PV4815) was added to each well and incubated at 25 °C for 2 h while shaking at 600 rpm in the dark. Analysis was performed using an Envision Microplate Reader (PerkinElmer).

A further assay addresses T2, HRI (Homo sapiens, UniProt Q9BQI3).
T2 construct: purchased Carna 05-154
Put plainly: ISR kinase cell-free biochemical assay (Carna), HRI. Particulars: ATP 30 µM. As to the method:
as §1

Another assay deals with T3, PKR (Homo sapiens, UniProt P19525).
T3 construct: purchased Carna 05-156
As to the kind of experiment: ISR kinase cell-free biochemical assay (Carna), PKR. Conditions: ATP 6 µM. As to the method: as §1

A further assay concerns the target T4, FLT3 (Homo sapiens, UniProt P36888).
T4 sequence (P36888 27-993): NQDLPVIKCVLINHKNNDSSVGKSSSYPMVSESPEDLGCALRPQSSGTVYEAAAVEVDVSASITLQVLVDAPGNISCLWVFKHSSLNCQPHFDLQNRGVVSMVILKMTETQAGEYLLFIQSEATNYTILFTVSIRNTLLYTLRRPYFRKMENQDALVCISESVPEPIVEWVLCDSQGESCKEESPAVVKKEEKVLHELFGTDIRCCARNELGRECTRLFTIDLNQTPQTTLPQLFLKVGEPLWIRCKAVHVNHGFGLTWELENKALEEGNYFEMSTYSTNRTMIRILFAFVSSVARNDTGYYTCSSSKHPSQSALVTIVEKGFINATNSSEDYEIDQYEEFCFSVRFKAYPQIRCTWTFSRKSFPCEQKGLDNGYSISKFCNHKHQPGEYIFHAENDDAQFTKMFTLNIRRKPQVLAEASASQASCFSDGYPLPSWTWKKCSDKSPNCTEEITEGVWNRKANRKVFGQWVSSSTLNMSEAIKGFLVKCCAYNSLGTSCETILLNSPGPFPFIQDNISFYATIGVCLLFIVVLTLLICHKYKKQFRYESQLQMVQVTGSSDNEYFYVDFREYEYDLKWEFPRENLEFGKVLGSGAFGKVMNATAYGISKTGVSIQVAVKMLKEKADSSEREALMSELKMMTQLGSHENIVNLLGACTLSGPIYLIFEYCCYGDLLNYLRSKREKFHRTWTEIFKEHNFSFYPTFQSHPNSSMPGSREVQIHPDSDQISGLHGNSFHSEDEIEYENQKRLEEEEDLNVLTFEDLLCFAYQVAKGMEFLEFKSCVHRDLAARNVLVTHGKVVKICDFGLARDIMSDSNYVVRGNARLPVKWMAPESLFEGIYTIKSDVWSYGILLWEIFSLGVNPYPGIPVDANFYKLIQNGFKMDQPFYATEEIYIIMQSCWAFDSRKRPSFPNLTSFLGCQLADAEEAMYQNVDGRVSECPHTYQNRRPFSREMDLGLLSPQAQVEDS
As to the kind of experiment: Radiometric in vitro kinase activity assay, FLT3. Particulars: wild-type FLT3, radiometric, up to 10 μM. The class given is biochemical.

For another assay, the system named is MOLM-13 (FLT3-ITD). As to the kind of experiment: Cell viability assay, MOLM-13. The class given is cell-based. Particulars: Homo sapiens.
Another assay has as its system Kasumi-1 (FLT3wt). As to the kind of experiment: Cell viability assay, Kasumi-1. Particulars: Homo sapiens. Format: cell-based.
Another assay relates to phosphoPERK (T980). As to the kind of experiment: PERK autophosphorylation (pPERK/PERK) in mouse pancreas after oral dosing. Format: in vivo. Conditions: 30 mg/kg oral, 1 h. As to the method: For PK analysis of pyrrolopyrimidine analogs in mouse, rat, and dog plasma, the oral formulation was prepared as a solution containing 20% (w/v) Captisol in 25 mM NaH2PO4 buffer (pH 2). Compounds were administered orally by gavage at 10 mg/kg to female CD1 mice. After dosing, plasma samples were collected to characterize the PK profiles at 0.25, 0.5, 1, 2, 4, 8, 12 and 24 h post-dose. The plasma concentration of compound was determined by protein precipitation with acetonitrile and liquid chromatography with mass spectrometric detection (LC-MS/MS). Parameters were estimated using Phoenix (WinNonlin) pharmacokinetic software version 6.1.0 using a non-compartmental approach consistent with the oral route of administration. PK analysis of 26 in plasma and pancreas followed a similar analytical method as above, with minor modifications. Compound 26 was suspended in a vehicle consisting of 0.5% methylcellulose (400 cP) and 0.1% Tween80 in water and administered to BALB/c nude mice by oral gavage at 0.3, 1, 3, 10, 30 mg/kg. Plasma and pancreas were sampled from 5 mice per group following a single oral administration at 1, 4, 8, 12, 24 h post-dose.
Total protein was extracted from pancreas tissues sampled during PK studies described above. […]

T3 sequence (P19525 whole entry): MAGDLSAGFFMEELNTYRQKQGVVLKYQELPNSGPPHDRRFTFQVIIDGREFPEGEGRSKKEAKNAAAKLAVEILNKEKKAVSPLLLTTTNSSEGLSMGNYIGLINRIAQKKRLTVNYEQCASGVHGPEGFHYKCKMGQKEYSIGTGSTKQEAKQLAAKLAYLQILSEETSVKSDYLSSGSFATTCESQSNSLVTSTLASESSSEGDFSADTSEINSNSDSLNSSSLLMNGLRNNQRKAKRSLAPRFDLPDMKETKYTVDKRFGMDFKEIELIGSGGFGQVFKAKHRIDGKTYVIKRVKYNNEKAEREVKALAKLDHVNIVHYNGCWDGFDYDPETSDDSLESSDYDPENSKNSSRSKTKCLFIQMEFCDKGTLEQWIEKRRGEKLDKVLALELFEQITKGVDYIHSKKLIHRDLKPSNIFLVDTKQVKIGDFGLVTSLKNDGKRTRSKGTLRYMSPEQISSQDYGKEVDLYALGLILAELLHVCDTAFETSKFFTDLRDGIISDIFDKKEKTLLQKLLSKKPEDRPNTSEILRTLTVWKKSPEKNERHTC
T1 sequence (Q9NZJ5 563-1116 limits assumed): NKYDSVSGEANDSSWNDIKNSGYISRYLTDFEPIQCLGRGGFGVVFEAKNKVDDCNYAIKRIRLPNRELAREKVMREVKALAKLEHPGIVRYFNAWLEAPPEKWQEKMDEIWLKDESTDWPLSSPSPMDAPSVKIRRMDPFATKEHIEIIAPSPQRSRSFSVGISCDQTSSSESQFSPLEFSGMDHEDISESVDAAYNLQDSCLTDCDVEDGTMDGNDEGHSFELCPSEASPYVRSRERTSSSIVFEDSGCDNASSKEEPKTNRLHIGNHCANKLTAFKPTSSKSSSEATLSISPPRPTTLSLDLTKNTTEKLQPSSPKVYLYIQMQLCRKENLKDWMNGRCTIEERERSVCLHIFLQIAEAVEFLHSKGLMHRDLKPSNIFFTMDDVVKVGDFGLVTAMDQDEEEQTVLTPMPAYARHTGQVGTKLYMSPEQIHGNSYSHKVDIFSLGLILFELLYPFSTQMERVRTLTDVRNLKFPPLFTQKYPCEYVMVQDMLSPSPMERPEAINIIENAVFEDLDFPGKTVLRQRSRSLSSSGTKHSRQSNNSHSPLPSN
T2 sequence (Q9BQI3 whole entry): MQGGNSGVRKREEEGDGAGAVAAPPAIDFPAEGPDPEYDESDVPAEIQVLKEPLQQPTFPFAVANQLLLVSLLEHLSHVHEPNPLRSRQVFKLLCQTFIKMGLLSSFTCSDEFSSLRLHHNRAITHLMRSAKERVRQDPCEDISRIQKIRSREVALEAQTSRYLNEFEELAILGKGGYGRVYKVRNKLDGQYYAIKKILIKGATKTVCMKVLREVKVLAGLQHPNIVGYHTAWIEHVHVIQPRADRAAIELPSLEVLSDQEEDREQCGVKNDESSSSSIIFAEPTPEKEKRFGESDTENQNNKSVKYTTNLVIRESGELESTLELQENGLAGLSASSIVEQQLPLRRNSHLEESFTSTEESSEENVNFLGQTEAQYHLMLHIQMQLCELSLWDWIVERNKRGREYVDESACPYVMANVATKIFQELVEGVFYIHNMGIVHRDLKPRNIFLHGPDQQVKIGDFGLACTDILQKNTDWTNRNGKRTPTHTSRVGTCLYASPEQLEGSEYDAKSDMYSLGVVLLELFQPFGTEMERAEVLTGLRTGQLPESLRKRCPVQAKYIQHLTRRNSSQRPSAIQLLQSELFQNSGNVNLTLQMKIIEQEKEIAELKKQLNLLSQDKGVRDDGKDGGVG

As for `Cc1nc(N)c2c(-c3ccc(NC(=O)[C@H](O)c4cccc(C(F)(F)F)c4)cc3C)cn(C)c2n1` [Compound 26], the IC50 is 4.7 nM against PERK; more than 10000 nM against HRI; more than 10000 nM at PKR; more than 1000 nM at FLT3; 311 nM with MOLM-13 (FLT3-ITD); more than 10000 nM in the assay on Kasumi-1 (FLT3wt). In addition, in the assay on phosphoPERK (T980), the “inhibition of pPERK/PERK in pancreas” value is listed as “approximately 80%”.
